Experiments:
human melanoma cell MeI5 = test: Tumor cell proliferation assay (ATP Lite), MeI5; assay type: cell-based; details: MeI5 cells
Method: Assay 2: Tumor Cell Proliferation Assays (ATP Lite)
Murine colon C26, human melanoma A375 and MeI5 or human pancreatic MiaPaCa-2 cells were plated in 96 well Corning white plates (1500 cells/well for C26, and 2000 cells/well for A375, and MiaPaCa-2) and cultured overnight at 37° C. in 5% CO2. Inhibitors were serially diluted in 100% DMSO and subsequently added to cells to reach a final concentration of 0.25% DMSO. The cells were incubated for 4 days in the presence of test compounds in cell growth media (DMEM with 10% fetal bovine serum, 2 mM glutamine for C26, and MiaPaCa-2, and RPMI with 10% fetal bovine serum, 2 mM glutamine for A375). Cell proliferation was quantitated using the ATP lite cell proliferation kit (Packard). Columns 4-6 show the concentration of compounds required to induce 50% cell death (IC50 in μM) of […]. With “+” meaning 3 μM<IC50≦10 μM and “++” IC50≦3 μM and “n.d.” means not determined. Few compounds were also tested on human melanoma cell MeI5.

[1] = test system: human melanoma A375 cells; test: Tumor cell proliferation assay (ATP Lite), A375; assay type: cell-based; details: A-375, 96 h, 4 days
Procedure, shortened: (§1)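 Cells seeded at 1500/well (C26) or 2000/well (A375, MiaPaCa-2) grew overnight, then were exposed to serially diluted compounds (0.25% DMSO final) for 4 days in serum-containing DMEM or RPMI. Viability read by ATPlite luminescence; IC50 is the concentration giving 50% cell death.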

[2] = Microsomal stability assay, HLM; assay type: in vitro ADME; details: pooled human liver microsomes, pH 7.4; 3 μM compound, 0.5 mg/ml human liver microsomes, 37° C., 2 mM NADPH; read-out: HLM t1/2
Method: (§2) Assay 3: Microsomal Stability Assay
(§3) Compounds were tested on their stability in human, rat and mouse liver microsomal preparations (HLM, RLM and MLM respectively). At a final concentration of 3 μM, compounds were incubated at 37° C. with 0.5 mg/ml human, rat or mouse liver microsomes in a buffer containing 50 mM phosphate, pH 7.4 and 2 mM NADPH. Pooled human liver microsomes or pooled male rat liver microsomes (Sprague Dawley) were obtained from NatuTec (Frankfurt, Germany). Incubations without NADPH served as negative controls. Reactions were stopped after 0, 15, 30, 45 or 60 min by the addition of acetonitrile and microsomes were pelleted by centrifugation (10 min at 6200×g). Supernatants were analyzed by HPLC regarding the concentration of mother compound. Finally, the half life of compounds in the regarding microsomal preparation was calculated.

human MEK1 = human MEK1 (Homo sapiens, UniProt Q02750); test: MEK-1 Enzyme Assay (LANCE-HTRF); assay type: biochemical; details: 100 nM MEK1, 15 μM ATP, 300 nM ERK2, two hours; read-out: MEK inhibition
human MEK1, sequence (Q02750 whole entry): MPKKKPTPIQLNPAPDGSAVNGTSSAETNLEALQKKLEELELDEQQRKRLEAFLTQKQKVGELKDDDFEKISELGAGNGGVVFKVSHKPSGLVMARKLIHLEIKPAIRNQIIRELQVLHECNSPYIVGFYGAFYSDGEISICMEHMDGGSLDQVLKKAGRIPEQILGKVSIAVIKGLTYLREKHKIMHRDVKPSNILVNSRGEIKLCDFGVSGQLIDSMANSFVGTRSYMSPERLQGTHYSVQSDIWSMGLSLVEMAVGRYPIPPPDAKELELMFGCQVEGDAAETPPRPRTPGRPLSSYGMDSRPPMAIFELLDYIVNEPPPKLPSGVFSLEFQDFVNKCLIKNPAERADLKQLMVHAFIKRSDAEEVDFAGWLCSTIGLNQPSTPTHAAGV
Procedure, shortened: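 TR-FRET readout of MEK1-catalysed ERK1 phosphorylation; after a 2 h reaction, Eu-anti-PY20 (5 nM) and anti-GST-APC (50 nM) were added in buffer with 50 mM EDTA and 0.05% BSA, then incubated 1 h in the dark.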

[3] = Microsomal stability assay, RLM; assay type: in vitro ADME; details: male, Sprague Dawley, pooled rat liver microsomes, pH 7.4; 3 μM compound, 0.5 mg/ml rat liver microsomes, 37° C., 2 mM NADPH; read-out: RLM t1/2
Method: as §2, §3

Murine colon C26 cells = test: Tumor cell proliferation assay (ATP Lite), C26; assay type: cell-based; details: Mus musculus, 96 h, 4 days
Procedure, shortened: as §1

[4] = Microsomal stability assay, MLM; assay type: in vitro ADME; details: pH 7.4; 3 μM compound, 0.5 mg/ml mouse liver microsomes, 37° C., 2 mM NADPH; read-out: MLM t1/2
Method: as §2, §3

Caco-2 cells = test: Caco-2 permeability assay; assay type: in vitro ADME; details: 10 μM, pH 7.4, 120 minutes; for Caco A-B: Papp apical to basolateral; for Caco B-A: Papp basolateral to apical
Method: Assay 4: Caco-2 Permeability Assay
Caco-2 cells obtained from the ATCC at passage number 27 are used. Cells (passage number 40-60) were seeded on to Millipore Multiscreen Caco-2 plates or Falcon HTS inserts at 1×10^5 cells/cm2. Cells were cultured for 20 days in DMEM and media was changed every two or three days. On day 20 the permeability study was performed.
Permeability was studied by applying compound to the apical surface of cell monolayers and measuring compound permeation into the basolateral compartment. The experiment was also performed in the reverse direction (B-A) to investigate active transport. Hanks Balanced Salt Solution (HBSS) pH 7.4 buffer with 25 mM HEPES and 10 mM glucose at 37° C. was used as the medium in permeability studies. Incubations were carried out in an atmosphere of 5% CO2 with a relative humidity of 95%.
The monolayers were prepared by rinsing both basolateral and apical surfaces twice with HBSS at 37° C. Cells were then incubated with HBSS in both apical and basolateral compartments for 40 minutes to stabilize physiological parameters.
HBSS was then removed from the apical compartment and replaced with test compound dosing solutions. The solutions were made by diluting 10 mM DMSO concentrates with HBSS to give a final test compound concentration of 10 μM (final DMSO concentration adjusted to 1%). The fluorescent integrity marker lucifer yellow was also included in the dosing solution. Analytical standards were made from dosing solutions. Test compound permeability was assessed in duplicate. On each plate compounds of known permeability characteristics were run as controls.
The apical compartment inserts were then placed into ‘companion’ plates containing fresh HBSS. For basolateral to apical (B-A) experiments the experiment was initiated by replacing buffer in the inserts then placing them in companion plates containing dosing solutions. At 120 minutes the companion plate was removed and apical and basolateral samples diluted for analysis by LC-MS/MS (the donor compartment was also sampled to permit determination of starting concentration after non-specific binding has occurred).
The integrity of the monolayers throughout the experiment is checked by monitoring lucifer yellow permeation using fluorimetric analysis. Lucifer yellow permeation was low if monolayers have not been damaged. Test and control compounds were quantified by LC-MS/MS cassette analysis using a 5-point calibration with appropriate dilution of the samples. Should lucifer yellow Papps were above QC limits in more than one well per test compound, the compound was re-tested.
The permeability coefficient for each compound (Papp) was calculated from the following equation: Papp=[dQ/dt]/[C0×A]
Whereby dQ/dt is the rate of permeation of the drug across the cells, C0 is the donor compartment concentration at time zero and A is the area of the cell monolayer. C0 is obtained from analysis of the donor compartment at the end of the incubation period.
Test compounds were grouped into low, medium or high absorption potential based on comparison with control compounds, which have known human absorption.
In addition, permeation was studied in both directions across the cells, and an asymmetry index was reported from mean A-B and B-A data. This was derived from: Papp(B-A)/Papp(A-B)
Wherein “+” means a caco A-B and caco B-A value of 1-10 and “++” means a caco A-B and caco B-A value of 11-100.

Tumors = details: patients; cited from earlier work
[5] = cited from earlier work

Compound | IC50 (human melanoma cell MeI5) | IC50 [1] | half-life at 3 µM [2] | IC50 (human MEK1) | half-life at 3 µM [3] | IC50 (Murine colon C26 cells) | half-life at 3 µM [4] | Caco A-B (Caco-2 cells) | Caco B-A (Caco-2 cells) | efficacy in clinical phase II trials (Tumors) | bioavailability [5]
OCCNc1nnc(-c2ccncc2Nc2ccc(Br)cc2F)o1 [Example 127, 2-{5-[3-(4-Bromo-2-fluoro-phenylamino)-pyridin-4-yl]-[1,3,4]oxadiazol-2-ylamino}-ethanol] |  |  | > 2 h |  | > 2 h |  | 0.0167 to 0.5 h | ++ (a caco A-B and caco B-A value of 11-100) | ++ (a caco A-B and caco B-A value of 11-100) |  | 
CNCCNc1nnc(-c2ccncc2Nc2ccc(Br)cc2F)o1 [Example 128, N-{5-[3-(4-Bromo-2-fluoro-phenylamino)-pyridin-4-yl]-[1,3,4]oxadiazol-2-yl}-N′-methyl-ethane-1,2-diamine] |  |  | > 2 h | < 1000 nM | 0.517 to 2 h |  |  | ++ (a caco A-B and caco B-A value of 11-100) | ++ (a caco A-B and caco B-A value of 11-100) |  | 
C=CCNc1nnc(-c2ccncc2Nc2ccc(Br)cc2C)o1 [Example 129, [4-(5-Allylamino-[1,3,4]oxadiazol-2-yl)-pyridin-3-yl]-(4-bromo-2-methyl-phenyl)-amine] |  |  | > 2 h | < 1000 nM | 0.517 to 2 h |  | > 2 h | ++ (a caco A-B and caco B-A value of 11-100) | ++ (a caco A-B and caco B-A value of 11-100) |  | 
O=C(NOCC1CC1)c1ccc(F)c(F)c1Nc1ccc(I)cc1Cl [PD-184352] |  |  |  |  |  |  |  |  |  | lacking efficacy | low

Continued, in another order:

IC50 (human melanoma cell MeI5) | IC50 [1] | half-life at 3 µM [2] | IC50 (human MEK1) | half-life at 3 µM [3] | IC50 (Murine colon C26 cells) | half-life at 3 µM [4] | Compound | Caco A-B (Caco-2 cells) | Caco B-A (Caco-2 cells) | efficacy in clinical phase II trials (Tumors) | bioavailability [5]
3000 to 10000 nM | ≤ 3 µM | 0.517 to 2 h | < 1000 nM | 0.517 to 2 h |  |  | CCONC(=O)c1ccncc1Nc1ccc(Br)cc1C [Example 4, 3-[(4-Bromo-2-methylphenyl)amino]-N-ethoxyisonicotinamide] |  |  |  | 
≤ 3000 nM | ≤ 3 µM |  | < 1000 nM |  | 3 to 10 µM |  | CCONC(=O)c1ccncc1Nc1ccc(I)cc1C [Example 5, N-Ethoxy-3-[(4-iodo-2-methylphenyl)amino]isonicotinamide] |  |  |  | 
 | ≤ 3 µM | > 2 h | < 1000 nM | > 2 h | 3 to 10 µM | > 2 h | Cc1cc(I)ccc1Nc1cnccc1C(=O)NOC[C@H](O)CO [Example 9, 3-[(2-methyl-4-iodophenyl)amino]-N-{[(2R)-2,3-dihydroxypropyl]oxy}-isonicotinamide] | + (a caco A-B and caco B-A value of 1-10) | ++ (a caco A-B and caco B-A value of 11-100) |  | 
 |  | 0.517 to 2 h | < 1000 nM | 0.0167 to 0.5 h |  |  | Cc1cc(I)ccc1Nc1cnccc1C(=O)NS(C)(=O)=O [Example 123, N-[3-(4-Iodo-2-methyl-phenylamino)-pyridine-4-carbonyl]-methanesulfonamide] |  |  |  | 
≤ 3000 nM |  |  | < 1000 nM |  | 3 to 10 µM |  | Cc1cc(I)ccc1Nc1cnccc1C(=O)NOC[C@@H](O)CO [Example 124, N—((S)-2,3-Dihydroxy-propoxy)-3-(4-iodo-2-methyl-phenylamino)-isonicotinamide] |  |  |  | 

From US8524911B2, “3-arylamino pyridine derivatives” (Merck Serono SA, priority 2004, dated 2013)
